The text below walks through data of patent US20200199681A1, “MDA-7 CANCER THERAPIES AND METHODS OF DETECTING BIOMOLECULES” (VIRGINIA COMMONWEATLH UNIVERSITY, priority 2016, published 2020).

For one assay, the system named is miR-221. Nature of the assay: level of miR-221 by real time PCR (RQ-PCR, taqman probe). The class given is cell-based, human. To be noted: for miR-221 levels: low doses alone: ATO 1 μM, hydrogen peroxide 10 μM, pyocyanin 50 μM. (In qPCR the cycle at which signal appears reflects the starting amount.)
A further assay relates to cancer cells. The settings on record: cited from earlier work.
Another assay relates to Hela and DU-145 cells. The settings on record: cited from earlier work.
Assay [1] relates to non-cancerous immortalized NOK cells. The settings on record: cited from earlier work.
A further assay has as its system U2OS cells. To be noted: cited from earlier work.

Regarding Arsenic trioxide, in the assay on miR-221 (MDA-MB-231 cells), the miR-221 levels entry was “did not alter”.
On the same count and under the same terms, in the case of `Cn1c2cccc(=O)c-2nc2ccccc21` [pyocyanin] it was “did not alter”.
In the case of `CC(=O)N[C@@H](CS)C(=O)O` [NAC, N-acetyl cysteine], in the assay with miR-221 (MDA-MB-231 cells, pretreatment for 12 hours), the “effect on down regulation of miR-221 by ROS inducer with Ad.mda-7” value is listed as “abrogated down regulation of miR-221”. Moreover, in the assay on cancer cells, the “cell death mediated by mda-7/IL-24” value was “inhibits”.
Turning to `C[S+]([O-])c1ccc(-c2nc(-c3ccncc3)c(-c3ccc(F)cc3)[nH]2)cc1` (stereo not drawn) [SB203580], in the assay with cancer cells, the Ad.mda-7-induced apoptosis result is reported as “inhibits”.
Consider `OO` [hydrogen peroxide], for which the miR-221 levels result in the assay with miR-221 (MDA-MB-231 cells) was “did not alter”.

B1: His-MDA-7: purified recombinant His tagged MDA-7/IL-24 protein (protein, UniProt Q13007 52-206, looked up)
Interleukin-24: QEFHFGPCQVKGVVPQKLWEAFWAVKDTMQAQDNITSARLLQQEVLQNVSDAESCYLVHTLLEFYLKTVFKNYHNRTVEVRTLKSFSTLANNFVLIVSQLQPSQENEMFSIRDSAHRRFLLFRRAFKQLDVEAALTKALGEVDILLTWMQKFYKL
modifications: His tag
notes: purified recombinant His tagged MDA-7/IL-24 protein
Regarding B1, the miR-221 expression result is on record as “remained unchanged” with miR-221 (A549 cells (lack cognate receptor pairs)), “sensitive to miR-221 down regulation” with miR-221 (A549 cells overexpressing IL-20R2 or IL-22R1) and “decreased” in the assay with miR-221 (DU-145 cells (both receptor types)).

B2: M1: MDA-7/IL-24 deletion mutant, signal peptide deleted (protein, UniProt Q13007 52-206, looked up)
Interleukin-24: B1 Interleukin-24
modifications: signal peptide deleted
notes: MDA-7/IL-24 deletion mutant, signal peptide deleted
As to B2, in the assay on Hela and DU-145 cells, the “tumor inhibitory effects of MDA-7/IL-24” value was “did not disrupt the tumor inhibitory effects”.

B3: Full length MDA-7/IL-24: full-length transcript with all 7 exons (protein, UniProt Q13007 1-206, looked up)
chain: MNFQQRLQSLWTLARPFCPPLLATASQMQMVVLPCLGFTLLLWSQVSGAQGQEFHFGPCQVKGVVPQKLWEAFWAVKDTMQAQDNITSARLLQQEVLQNVSDAESCYLVHTLLEFYLKTVFKNYHNRTVEVRTLKSFSTLANNFVLIVSQLQPSQENEMFSIRDSAHRRFLLFRRAFKQLDVEAALTKALGEVDILLTWMQKFYKL
modifications: full-length
notes: full-length transcript with all 7 exons
Take B3: in assay [1], the “viability of NOK cells” value is recorded as “no effect”. Also, in the assay with U2OS cells, the U2OS cell viability result is “capable of reducing U2OS cell viability”.
